Experimental findings from US6956055B2, “Substituted γ-lactone compounds as NMDA-antagonists” (Grunenthal GmbH, priority 2001, dated 2005) are described below.

This assay concerns the target T1, glycine-binding site of the NMDA receptor channel (Rattus norvegicus, UniProt P35439).
T1 construct: from tissue; host or cells: rat brain cortex and hippocampus membrane homogenate (male Wistar rats, Charles River)
As to the kind of experiment: Receptor binding test, displacement of (3H)-MDL 105.519 on rat brain membrane homogenates. The note with it: rat cortex and hippocampus membrane homogenate; for inhibition at 10 µM: (3H)-MDL 105.519; for Ki: 1 nmol/l (3H)-MDL 105.519, IC50 converted using Cheng-Prusoff equation. On the procedure:
The investigations for determining the affinity of the γ-lactone compounds of the general formula I according to the invention for the glycine-binding site of the NMDA receptor channel were performed on brain membrane homogenates (homogenate of cortex and hippocampus area from the brain of male rats, Wistar strain, Charles River, WIGA GmbH, Sulzbach, Germany), as described in B. M. Baron et al., Journal of Pharmacology and Experimental Therapeutics, vol. 279, pages 62-68, 1996. The corresponding literature description is hereby introduced as a reference and is deemed to be part of the disclosure.
To this end, the cortex and hippocampus were dissected out of freshly harvested rat brains and homogenised with ice cooling in 5 mmol/l of TRIS-acetate buffer, 0.32 mol/l of sucrose, pH 7.4 (10 ml/g fresh weight) using a Potter homogeniser (Braun, Melsungen, Germany, 10 piston strokes at 500 revolutions per minute (rpm)) and then centrifuged for 10 minutes at 1,000 g and 4° C. The first supernatant was collected and the sediment again homogenised with ice cooling with 5 mmol/l of TRIS-acetate buffer, 0,32 mol/l of sucrose, pH 7.4 (5 ml/g of original fresh weight of rat cerebral cortex and hippocampus) with the Potter homogeniser (10 piston strokes at 500 rpm) and centrifuged for 10 minutes at 1,000 g and 4° C. The resultant supernatant was combined with the supernatant from the first centrifugation and centrifuged at 17,000 g for 20 minutes at 4° C. The supernatant after this centrifugation was discarded and the membrane sediment was resuspended with 5 mmol/l of TRIS-acetate buffer, pH 8.0 (20 ml/g of original fresh weight) and homogenised with 10 piston strokes at 500 rpm.
The membrane homogenate was then incubated for 1 hour at 4° C. and centrifuged for 30 minutes at 50,000 g and 4° C. The supernatant was discarded and the centrifuge tubes containing the membrane sediment were sealed with Parafilm and frozen for 24 hours at −20° C. On the following day, the membrane sediment was thawed and resuspended with ice-cold 5 mmol/l TRIS-acetate buffer, 0,1% saponin (wt./vol.), pH 7.0 (10 ml/g of original fresh weight) and homogenised with 10 piston strokes at 500 rpm and then centrifuged for 20 minutes at 50,000 g and 4° C. The resultant supernatant was discarded and the sediment resuspended in a small volume with 5 mmol/l of TRIS-acetate buffer, pH 7.0 (approx. 2 ml/g of original fresh weight) and again homogenised with 10 piston strokes at 500 rpm. After determination of the protein content, the membrane homogenate was adjusted with 5 mmol/l TRIS-acetate buffer, pH 7.0, to a protein concentration of 10 mg of protein/ml and frozen in aliquots until used for testing.
The receptor binding test was performed by thawing aliquots, diluting them 1:10 with 5 mmol/l TRIS-acetate buffer, pH 7.0, homogenising them with ice-cooling with 10 piston strokes at 500 rpm with the Potter homogeniser and centrifuging them for 60 minutes at 55,000 g at 4° C. The supernatant was decanted and the membrane sediment adjusted with ice-cold 50 mmol/l TRIS-acetate buffer, pH 7.0, to a protein concentration of 1 mg/ml and again homogenised with 10 piston strokes at 500 rpm and kept in suspension in an ice bath with stirring on a magnetic stirrer. This membrane homogenate was used in the receptor binding test in a quantity of 100 μl per 1 ml batch (0.1 mg of protein/ml in the final batch).
In the binding test, 50 mmol/l TRIS-acetate buffer pH 7.0 was used as the buffer and 1 nmol/l of (^3H)-MDL 105.519 was used as the radioactive ligand, as described in the above-stated literature reference by B. M. Baron et al. The level of non-specific binding was determined in the presence of 1 mmol/l of glycine.
In further batches, the compounds of the general formula I according to the invention were added in concentration series and the displacement of the radioactive ligand from its specific binding at the glycine-binding site of the NMDA receptor channel was determined. […]

One may read the inhibition as the relative decrease from the control value, in per cent. Read a high inhibition as strong suppression. By Ki is commonly meant a dissociation constant, usually derived from enzyme kinetics or from competition with a known ligand. A lower Ki goes with a stronger hold on the target. On to `CC1(c2ccccc2)CC(Nc2cc(Cl)cc(Cl)c2)C(=O)O1` (stereo not shown) [Example 12, 3-(3,5-Dichloro-phenylamino)-5-methyl-5-phenyl-dihydro-furan-2-one], for which the inhibition at 10 µM came out at 80% and the affinity corresponds to a Ki of 800 nM. Turning to `CC1(c2ccc(F)cc2)CC(Nc2cc(Cl)cc(Cl)c2)C(=O)O1` (stereo not shown) [Example 13, 3-(3,5-Dichloro-phenylamino)-5-(4-fluoro-phenyl)-5-methyl-dihydro-furan-2-one], testing at 10 µM gave an inhibition of 70% and the affinity, expressed as Ki, was 800 nM. In the same order, the values of `CC1(c2ccc(Cl)cc2)CC(Nc2cc(Cl)cc(Cl)c2)C(=O)O1` (stereo not shown) [Example 25, 5-(4-Chloro-phenyl)-3-(3,5-dichloro-phenylamino)-5-methyl-dihydro-furan-2-one] are 71% and 1300 nM. As for `CCCCC1(c2ccccc2)CC(Nc2cc(Cl)cc(Cl)c2)C(=O)O1` (stereo not shown) [Example 108, 5-n-Butyl-3-(3,5-dichlorophenylamino)-5-phenyl-dihydrofuran-2-one], the inhibition at 10 µM was 62%.
